Laboratory results from US20240124399A1, “NOVEL INDOLE DERIVATIVE, AND USE THEREOF FOR TREATING DISEASES RELATED TO ADVANCED GLYCATION END PRODUCTS” (METACEN THERAPEUTICS, priority 2021, published 2024).

How the values were obtained:
[1] = Methylglyoxal (MGO) trapping ability: fluorescence intensity of reaction product; type: biochemical; settings: compound 1.0 mM in MGO+PBS pH 7.4, 37° C., 1 day; ex 355 nm / em 460 nm; 10×10^3 or more = ability to trap MGO
Protocol: Methylglyoxal (MGO) is a main precursor of advanced glycation end products that cause complications due to diabetes mellitus. Successful trapping of methylglyoxal (MGO) can inhibit the production of advanced glycation end products. Therefore, the objective of this experimental example was to confirm whether the compound of the present invention has the ability to trap methylglyoxal (MGO), a precursor before the production of advanced glycation end products.
A mixture was prepared by adding methylglyoxal (MGO) to phosphate buffered saline (PBS, Cat no. 10010023, pH 7.4). The mixture (MGO+PBS) was treated with the compound of the above example at a concentration of 1.0 mM and then cultured at 37° C. for 1 day. The fluorescence intensity of the reaction product was measured at an excitation wavelength of 355 nm and an emission wavelength of 460 nm using a VICTOR™X3 multilabel plate reader.
The higher the fluorescence intensity measured from the reaction product, the higher the ability of the compound to trap methylglyoxal. In addition, in this experimental example, when the fluorescence intensity was 10×10^3 or more, it was determined that the compound had the ability to trap methylglyoxal.

[2] = Methylglyoxal (MGO) trapping ability: free MGO concentration by HPLC; type: biochemical; settings: for MGO concentration on day 1 (free MGO) / MGO concentration on day 7 (free MGO): compound 1:1 with MGO in PBS pH 7.4, 37° C.; for MGO concentration on day 1 (free MGO): day 1, HPLC; for MGO concentration on day 7 (free MGO): day 7, HPLC
Protocol: The objective of this experimental example was to confirm whether the compound of the present invention has the ability to trap methylglyoxal (MGO) by analyzing the concentration of free methylglyoxal (MGO) by high performance liquid chromatography (HPLC).
Specifically, a mixture was prepared by adding methylglyoxal (MGO) to phosphate buffered saline (PBS, Cat no. 10010023, pH 7.4). […]

| Compound | Fluorescence intensity on day 1 (×10^3) [1] | MGO concentration on day 1 (free MGO) [2] | MGO concentration on day 7 (free MGO) [2] | concentration of free methylglyoxal relative to the control group, day 1 ([2]; day 1 after incubation, control group PBS+MGO) | concentration of free methylglyoxal relative to the control group, day 7 ([2]; day 7 after incubation, control group PBS+MGO) |
| --- | --- | --- | --- | --- | --- |
| NCCCCNCCCNC(=O)OC[C@@H](N)Cc1c[nH]c2ccc(O)cc12 [Compound 10, (S)-2-amino-3-(5-hydroxy-1H-indol-3-yl)propyl (3-((4-aminobutyl)amino)propyl)carbamate] | 223.01 ± 3.74 ×10^3 | 444.11 µM | 269.28 µM | about 12% | about 38% |
| CCCC(=O)N[C@H](CO)Cc1c[nH]c2ccc(OC(=O)CCC)cc12 [Compound 9, (S)-3-(2-butyramido-3-hydroxypropyl)-1H-indol-5-yl butyrate] | 0.75 ± 0.30 ×10^3 | 551.993 µM | 403.462 µM | – | – |
| CCCC(=O)OC[C@@H](N)Cc1c[nH]c2ccc(OC(=O)CCC)cc12 [Compound 8, (S)-2-amino-3-(5-(butyryloxy)-1H-indol-3-yl)propyl butyrate] | 21.74 ± 0.50 ×10^3 | 501.09 µM | 412.65 µM | – | – |
